From the NIST ThermoML archive (doi:10.1021/je200811n)
Where “and” joins values, the source holds several entries; their conditions need not be identical. Equal entries are not always repeated.

Settings: Hot wire method

F/C=C/C(F)(F)F [trans-1,3,3,3-tetrafluoropropene]
Settings | thermal conductivity
341.16 K, 8206 kPa, Liquid | 0.06693 W/m/K
341.17 K, 3028 kPa, Liquid | 0.06204 W/m/K
341.17 K, 12132 kPa, Liquid | 0.07036 W/m/K
341.2 K, 1573 kPa, Liquid | 0.06027 W/m/K
341.38 K, 96 kPa, Gas | 0.01689 W/m/K
341.39 K, 20076 kPa, Liquid | 0.07508 W/m/K
341.4 K, 194 kPa, Gas | 0.01707 W/m/K
341.4 K, 3026 kPa, Liquid | 0.06202 W/m/K
341.42 K, 8129 kPa, Liquid | 0.06706 W/m/K
341.42 K, 16390 kPa, Liquid | 0.07285 W/m/K
341.44 K, 21979 kPa, Liquid | 0.07653 W/m/K
341.45 K, 1581 kPa, Liquid | 0.06025 W/m/K
341.48 K, 12128 kPa, Liquid | 0.07023 W/m/K
341.48 K, 20072 kPa, Liquid | 0.07503 W/m/K
341.49 K, 5174 kPa, Liquid | 0.06424 W/m/K
341.5 K, 3025 kPa, Liquid | 0.06178 W/m/K
341.51 K, 16388 kPa, Liquid | 0.07271 W/m/K
341.52 K, 8125 kPa, Liquid | 0.0669 W/m/K
341.52 K, 21981 kPa, Liquid | 0.07638 W/m/K
341.54 K, 1585 kPa, Liquid | 0.05998 W/m/K
341.58 K, 5172 kPa, Liquid | 0.06405 W/m/K
341.58 K, 8204 kPa, Liquid | 0.06619 W/m/K
341.58 K, 12127 kPa, Liquid | 0.07002 W/m/K
341.64 K, 194 kPa, Gas | 0.01696 W/m/K
341.72 K, 673 kPa, Gas | 0.01756 W/m/K
341.75 K, 673 kPa, Gas | 0.01724 W/m/K
341.76 K, 3022 kPa, Liquid | 0.0618 W/m/K
341.77 K, 449 kPa, Gas | 0.01756 W/m/K
341.77 K, 450 kPa, Gas | 0.01753 W/m/K
341.81 K, 1588 kPa, Liquid | 0.06 W/m/K
341.81 K, 20066 kPa, Liquid | 0.07498 W/m/K
341.83 K, 1416 kPa, Gas | 0.01808 W/m/K
341.84 K, 16385 kPa, Liquid | 0.0727 W/m/K
341.84 K, 21982 kPa, Liquid | 0.07632 W/m/K
341.87 K, 297 kPa, Gas | 0.0174 W/m/K
341.88 K, 8122 kPa, Liquid | 0.06684 W/m/K
341.91 K, 194 kPa, Gas | 0.01763 W/m/K
341.92 K, 12126 kPa, Liquid | 0.06996 W/m/K
341.92 K, 20063 kPa, Liquid | 0.07481 W/m/K
341.94 K, 8199 kPa, Liquid | 0.0668 W/m/K
341.95 K, 21979 kPa, Liquid | 0.07618 W/m/K
341.96 K, 16381 kPa, Liquid | 0.07254 W/m/K
341.97 K, 1251 kPa, Gas | 0.01812 W/m/K
341.97 K, 5173 kPa, Liquid | 0.06395 W/m/K
342 K, 8119 kPa, Liquid | 0.06663 W/m/K
342.04 K, 96 kPa, Gas | 0.0178 W/m/K
342.04 K, 671 kPa, Gas | 0.01723 W/m/K
342.04 K, 1049 kPa, Gas | 0.01784 W/m/K
342.04 K, 1050 kPa, Gas | 0.01784 W/m/K
342.04 K, 12122 kPa, Liquid | 0.06981 W/m/K
342.06 K, 8193 kPa, Liquid | 0.0666 W/m/K
342.08 K, 870 kPa, Gas | 0.01766 W/m/K
342.09 K, 450 kPa, Gas | 0.0176 W/m/K
342.09 K, 868 kPa, Gas | 0.01764 W/m/K
342.09 K, 5187 kPa, Liquid | 0.06375 W/m/K
342.1 K, 450 kPa, Gas | 0.01757 W/m/K
342.19 K, 297 kPa, Gas | 0.0174 W/m/K
342.2 K, 297 kPa, Gas | 0.01731 W/m/K
342.25 K, 1250 kPa, Gas | 0.01811 W/m/K
342.26 K, 194 kPa, Gas | 0.01748 W/m/K
342.26 K, 1414 kPa, Gas | 0.01822 W/m/K
342.27 K, 20059 kPa, Liquid | 0.07476 W/m/K
342.3 K, 21979 kPa, Liquid | 0.07611 W/m/K
342.32 K, 16372 kPa, Liquid | 0.07244 W/m/K
342.33 K, 1047 kPa, Gas | 0.01784 W/m/K
342.33 K, 1048 kPa, Gas | 0.01781 W/m/K
342.36 K, 669 kPa, Gas | 0.01728 W/m/K
342.37 K, 670 kPa, Gas | 0.01729 W/m/K
342.38 K, 866 kPa, Gas | 0.01767 W/m/K
342.39 K, 867 kPa, Gas | 0.01765 W/m/K
342.4 K, 8117 kPa, Liquid | 0.06658 W/m/K
342.42 K, 450 kPa, Gas | 0.01758 W/m/K
342.43 K, 451 kPa, Gas | 0.01761 W/m/K
342.43 K, 12120 kPa, Liquid | 0.06971 W/m/K
342.43 K, 21977 kPa, Liquid | 0.07598 W/m/K
342.44 K, 97 kPa, Gas | 0.01786 W/m/K
342.46 K, 8190 kPa, Liquid | 0.06655 W/m/K
342.46 K, 16363 kPa, Liquid | 0.07249 W/m/K
342.55 K, 1411 kPa, Gas | 0.01807 W/m/K
342.56 K, 296 kPa, Gas | 0.01736 W/m/K and 0.01734 W/m/K
342.56 K, 1249 kPa, Gas | 0.01814 W/m/K
342.56 K, 8113 kPa, Liquid | 0.06632 W/m/K
342.58 K, 12118 kPa, Liquid | 0.06949 W/m/K
342.59 K, 1260 kPa, Gas | 0.01776 W/m/K
342.64 K, 1045 kPa, Gas | 0.01782 W/m/K
342.64 K, 1046 kPa, Gas | 0.01782 W/m/K
342.65 K, 194 kPa, Gas | 0.01771 W/m/K
342.71 K, 668 kPa, Gas | 0.01733 W/m/K
342.71 K, 864 kPa, Gas | 0.01769 W/m/K
342.72 K, 865 kPa, Gas | 0.01767 W/m/K
342.78 K, 20073 kPa, Liquid | 0.07479 W/m/K
342.79 K, 450 kPa, Gas | 0.01763 W/m/K
342.79 K, 451 kPa, Gas | 0.01763 W/m/K
342.81 K, 21978 kPa, Liquid | 0.07589 W/m/K
342.85 K, 97 kPa, Gas | 0.01784 W/m/K
342.85 K, 16357 kPa, Liquid | 0.07241 W/m/K
342.94 K, 296 kPa, Gas | 0.0174 W/m/K and 0.01739 W/m/K
342.96 K, 20077 kPa, Liquid | 0.07456 W/m/K
342.97 K, 1044 kPa, Gas | 0.01783 W/m/K
342.97 K, 21978 kPa, Liquid | 0.07571 W/m/K
342.98 K, 1044 kPa, Gas | 0.01784 W/m/K
342.98 K, 12116 kPa, Liquid | 0.06939 W/m/K
343.02 K, 16352 kPa, Liquid | 0.07225 W/m/K
343.05 K, 862 kPa, Gas | 0.01767 W/m/K
343.05 K, 863 kPa, Gas | 0.0177 W/m/K
343.06 K, 194 kPa, Gas | 0.01766 W/m/K
343.07 K, 666 kPa, Gas | 0.01736 W/m/K
343.08 K, 667 kPa, Gas | 0.01735 W/m/K
343.16 K, 1405 kPa, Gas | 0.01819 W/m/K
343.25 K, 1255 kPa, Gas | 0.01787 W/m/K
343.28 K, 96 kPa, Gas | 0.01785 W/m/K
343.32 K, 1043 kPa, Gas | 0.01783 W/m/K
343.35 K, 296 kPa, Gas | 0.01753 W/m/K
343.48 K, 194 kPa, Gas | 0.01763 W/m/K

Settings | thermal conductivity [W/m/K]
343.15 K, Liquid | 0.05993
